Earlier results as cited in patent US9561187B1, “Sustained release metoprolol formulations” (CMAX Technologies, Inc., priority 2014, dated 2017).
Structures can show the parent of a compound that is named as a salt. Where two headings read alike, the source gives them in different places.

Columns and labels:
[1] = immediate-release tartrate vs extended-release succinate

Solubility (in acetone)	Solubility (in ether)	Solubility (in methylene chloride, in chloroform, and in alcohol)	Solubility (in water)	More bioavailable than metoprolol succinate (more drug is absorbed) [1]	Solubility (in dichloromethane and 2-propanol)	Solubility (in ethanol)	Solubility (in ethyl-acetate, acetone, diethylether and heptane)	Solubility (in methanol)	Compound
slightly soluble	insoluble	freely soluble	very soluble	at least 30%	–	–	–	–	COCCc1ccc(OCC(O)CNC(C)C)cc1 (racemic) [Metoprolol tartrate, (±)-1-(Isopropylamino)-3-[p-(2-methoxyethyl)phenoxy]-2-propanol L-(+)-tartrate (2:1) salt]
–	–	–	freely soluble	–	slightly soluble	sparingly soluble	practically insoluble	soluble	COCCc1ccc(OCC(O)CNC(C)C)cc1 (racemic) [Metoprolol succinate, (±)1(isopropylamino)-3-[p-(2-methoxyethyl)phenoxy]-2-propanol succinate (2:1) (salt)]
